The text below walks through data of patent US20260374754A1, “N-((ISOQUINOLIN-6-YL)METHYL)-1H-PYRAZOLE-4-CARBOXAMIDE DERIVATIVES AS PLASMA KALLIKREIN INHIBITORS FOR THE TREATMENT OF HEREDITARY ANGIODEMA” (Takeda Pharmaceutical Company Limited, priority 2022, published 2026).

This test deals with human activated kallikrein enzyme (Homo sapiens, UniProt P03952). The test can be described thus: Inhibition of human activated plasma kallikrein, fluorogenic PFR-AMC substrate, 500 pM enzyme format. The following applies: 300 μM PFR-AMC, 30 min preincubation, 10 min room temperature, pH 7.5. The class given is biochemical. The gist of the method:
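Using fluorogenic PFR-AMC at 300 μM, cleavage by 500 pM human activated kallikrein ran 10 min at room temperature, read at 460 nm emission (380 nm excitation). Enzyme and compounds were first preincubated 30 min in 20 mM Tris pH 7.5, 150 mM NaCl, 1 mM EDTA, 0.1% PEG-400, 0.1% Triton X-100.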

[1] abbreviates: 500 pM activated kallikrein, read-out: Primary Dose Response Assay: Average EC50.

Structures are written as SMILES. Counter-ions that a name gives are not always drawn. Like-named read-outs stand apart in the source and are kept apart here. Where only a bound is given, the exact number is not on record here.

Chain of human activated kallikrein enzyme (P03952 391-638 limits assumed): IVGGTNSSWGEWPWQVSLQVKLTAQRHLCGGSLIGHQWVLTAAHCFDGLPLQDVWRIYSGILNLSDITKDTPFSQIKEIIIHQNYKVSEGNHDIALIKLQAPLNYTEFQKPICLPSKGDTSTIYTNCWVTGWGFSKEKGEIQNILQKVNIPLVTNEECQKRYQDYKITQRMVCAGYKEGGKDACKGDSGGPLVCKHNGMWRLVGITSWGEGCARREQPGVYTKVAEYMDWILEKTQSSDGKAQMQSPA
Chain of human activated kallikrein enzyme (P03952 20-390 partner limits assumed): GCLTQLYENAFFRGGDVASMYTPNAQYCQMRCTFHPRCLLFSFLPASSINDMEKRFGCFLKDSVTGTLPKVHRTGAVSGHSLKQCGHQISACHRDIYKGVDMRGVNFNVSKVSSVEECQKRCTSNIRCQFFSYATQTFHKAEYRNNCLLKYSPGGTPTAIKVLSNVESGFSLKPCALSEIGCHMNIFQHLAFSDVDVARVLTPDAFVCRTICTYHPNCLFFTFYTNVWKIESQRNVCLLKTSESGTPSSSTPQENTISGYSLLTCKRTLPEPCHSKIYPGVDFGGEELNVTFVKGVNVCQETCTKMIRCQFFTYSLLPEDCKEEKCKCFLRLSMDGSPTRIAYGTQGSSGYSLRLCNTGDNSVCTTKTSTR

As usually defined, the EC50 is the concentration giving half of the maximal effect. `Cc1ccc2cc(CNc3cc(NCc4c(C)cc5c(N)nccc5c4C)ncn3)ccc2n1` [Example 335, N^4-((1-amino-5,7-dimethylisoquinolin-6-yl)methyl)-N^6-((2-methylquinolin-6-yl)methyl)pyrimidine-4,6-diamine]: under setting [1], the 50% effective concentration (EC50) was less than 1 nM. `Cc1cnc2ccc(CNc3cc(NCc4c(C)cc5c(N)nccc5c4C)ncn3)cc2c1` [Example 336, N^4-((1-amino-5,7-dimethylisoquinolin-6-yl)methyl)-N^6-((3-methylquinolin-6-yl)methyl)pyrimidine-4,6-diamine]: under setting [1], the EC50 is less than 1 nM. As to `Cc1cc2c(N)nccc2c(C)c1CNc1cc(NCc2ccc3ncccc3c2)ncn1` [Example 337, N^4-((1-amino-5,7-dimethylisoquinolin-6-yl)methyl)-N^6-(quinolin-6-ylmethyl)pyrimidine-4,6-diamine], the EC50 under setting [1] lay in the range of 1 to 10 nM.

For the molecule `Cc1cc2c(N)nccc2c(C)c1CNc1cc(NCc2ccc(Cc3cnccn3)cc2)ncn1` [Example 338, N^4-((1-amino-5,7-dimethylisoquinolin-6-yl)methyl)-N^6-(4-(pyrazin-2-ylmethyl)benzyl)pyrimidine-4,6-diamine], the EC50 under setting [1] was 1 to 10 nM. Turning to `Cc1cc2c(N)nccc2c(C)c1CNc1cc(NCc2ccc(C3CC3)cc2)ncn1` [Example 339, N^4-((1-amino-5,7-dimethylisoquinolin-6-yl)methyl)-N^6-(4-cyclopropylbenzyl)pyrimidine-4,6-diamine], the half-maximal effective concentration (EC50) under setting [1] lay within 10 to 100 nM. Regarding `Cc1cc2c(N)nccc2c(C)c1CNc1cc(NCc2ccccc2)ncn1` [Example 341, N^4-((1-amino-5,7-dimethylisoquinolin-6-yl)methyl)-N^6-benzylpyrimidine-4,6-diamine], the EC50 under setting [1] lay in the range of 100 to 1000 nM. Consider `Cc1cc2c(N)nccc2c(C)c1CNc1cc(NCc2ccc(Cc3ncnn3C)cc2)ncn1` [Example 342, N^4-((1-amino-5,7-dimethylisoquinolin-6-yl)methyl)-N^6-(4-((1-methyl-1H-1,2,4-triazol-5-yl)methyl)benzyl)pyrimidine-4,6-diamine], for which the EC50 under setting [1] was less than 1 nM. `Cc1nnc(Cc2ccc(CNc3cc(NCc4c(C)cc5c(N)nccc5c4C)ncn3)cc2)s1` [Example 343, N^4-((1-amino-5,7-dimethylisoquinolin-6-yl)methyl)-N^6-(4-((5-methyl-1,3,4-thiadiazol-2-yl)methyl)benzyl)pyrimidine-4,6-diamine]: the EC50 under setting [1] is more than 1000 nM. Consider `Cc1cc2c(N)nccc2c(C)c1CNc1cc(NCc2ccc(OCC(=O)N3CC4CC4C3)cc2)ncn1` (centres unmarked) [Example 344, 2-(4-(((6-(((1-amino-5,7-dimethylisoquinolin-6-yl)methyl)amino)pyrimidin-4-yl)amino)methyl)phenoxy)-1-(3-azabicyclo[3.1.0]hexan-3-yl)ethan-1-one, formic acid salt], for which, under setting [1], the EC50 is less than 1 nM. `Cc1cc2c(N)nccc2c(C)c1CNc1cc(NCc2ccc(OCC(=O)N3CCCC3)cc2)ncn1` [Example 345, 2-(4-(((6-(((1-amino-5,7-dimethylisoquinolin-6-yl)methyl)amino)pyrimidin-4-yl)amino)methyl)phenoxy)-1-(pyrrolidin-1-yl)ethan-1-one]: under setting [1], the EC50 was less than 1 nM. Turning to `Cc1cc2c(N)nccc2c(C)c1CNc1cc(NCc2ccc(OCC(=O)N3CCCCC3)cc2)ncn1` [Example 346, 2-(4-(((6-(((1-amino-5,7-dimethylisoquinolin-6-yl)methyl)amino)pyrimidin-4-yl)amino)methyl)phenoxy)-1-(piperidin-1-yl)ethan-1-one], the EC50 under setting [1] lay within 1 to 10 nM. In the case of `Cc1cc2c(N)nccc2c(C)c1CNc1cc(NCc2ccc(OCC(=O)N3CCC3)cc2)ncn1` [Example 347, 2-(4-(((6-(((1-amino-5,7-dimethylisoquinolin-6-yl)methyl)amino)pyrimidin-4-yl)amino)methyl)phenoxy)-1-(azetidin-1-yl)ethan-1-one, formic acid salt], the EC50 under setting [1] was less than 1 nM. In the case of `Cc1cc2c(N)nccc2c(C)c1CNc1cc(NCc2cc(C)c(OCC(=O)N(C)C)c(C)c2)ncn1` [Example 348, 2-(4-(((6-(((1-amino-5,7-dimethylisoquinolin-6-yl)methyl)amino)pyrimidin-4-yl)amino)methyl)-2,6-dimethylphenoxy)-N,N-dimethylacetamide], the EC50 under setting [1] lay in the range of 1 to 10 nM. In the case of `Cc1cc2c(N)nccc2c(C)c1CNc1cc(NCc2ccc(OCc3ccccn3)cc2)ncn1` [Example 349, N^4-((1-amino-5,7-dimethylisoquinolin-6-yl)methyl)-N^6-(4-(pyridin-2-ylmethoxy)benzyl)pyrimidine-4,6-diamine, formic acid salt], under setting [1], the EC50 was 1 to 10 nM. For `Cc1cc2c(N)nccc2c(C)c1CNc1cc(NCc2ccc(Cc3cscn3)cc2)ncn1` [Example 350, N^4-((1-amino-5,7-dimethylisoquinolin-6-yl)methyl)-N^6-(4-(thiazol-4-ylmethyl)benzyl)pyrimidine-4,6-diamine], under setting [1], the EC50 is less than 1 nM. Turning to `Cc1cc2c(N)nccc2c(C)c1CNc1cc(NCc2ccc(OCc3ncco3)cc2)ncn1` [Example 351, N^4-((1-amino-5,7-dimethylisoquinolin-6-yl)methyl)-N^6-(4-(oxazol-2-ylmethoxy)benzyl)pyrimidine-4,6-diamine, formic acid salt], under setting [1], the EC50 lay in the range of 1 to 10 nM. Regarding `Cc1cc2c(N)nccc2c(C)c1CNc1cc(NCc2ccc(OC(F)(F)C(=O)N(C)C)cc2)ncn1` [Example 352, 2-(4-(((6-(((1-amino-5,7-dimethylisoquinolin-6-yl)methyl)amino)pyrimidin-4-yl)amino)methyl)phenoxy)-2,2-difluoro-N,N-dimethylacetamide], under setting [1], the EC50 lay in the range of 10 to 100 nM. The same measure, in the same setting: the same measure for `Cc1cc2c(N)nccc2c(C)c1CNc1cc(NCc2cc(C)c(OCc3ccccn3)c(C)c2)ncn1` [Example 353, N^4-((1-amino-5,7-dimethylisoquinolin-6-yl)methyl)-N^6-(3,5-dimethyl-4-(pyridin-2-ylmethoxy)benzyl)pyrimidine-4,6-diamine, formic acid salt]: 10 to 100 nM; for `Cc1cc2c(N)nccc2c(C)c1CNc1cc(NCc2ccc(OC(C)(C)C(=O)N(C)C)cc2)ncn1` [Example 354, 2-(4-(((6-(((1-amino-5,7-dimethylisoquinolin-6-yl)methyl)amino)pyrimidin-4-yl)amino)methyl)phenoxy)-N,N,2-trimethylpropanamide, formic acid salt]: 10 to 100 nM; for `Cc1cc2c(N)nccc2c(C)c1CNc1cc(NCc2cc(C)c(OCc3nccs3)c(C)c2)ncn1` [Example 355, N^4-((1-amino-5,7-dimethylisoquinolin-6-yl)methyl)-N^6-(3,5-dimethyl-4-(thiazol-2-ylmethoxy)benzyl)pyrimidine-4,6-diamine, formic acid salt]: 1 to 10 nM. Same read-out and setting: the same measure for `Cc1cc2c(N)nccc2c(C)c1CNc1cc(NCc2ccc(OCc3nccs3)cc2)ncn1` [Example 356, N^4-((1-amino-5,7-dimethylisoquinolin-6-yl)methyl)-N^6-(4-(thiazol-2-ylmethoxy)benzyl)pyrimidine-4,6-diamine]: less than 1 nM. In the case of `Cc1cc2c(N)nccc2c(C)c1CNc1cc(NCc2ccc(OC3(C(=O)N(C)C)CC3)cc2)ncn1` [Example 357, 1-(4-( ((6-(((1-amino-5,7-dimethylisoquinolin-6-yl)methyl)amino)pyrimidin-4-yl)amino)methyl)phenoxy)-N,N-dimethylcyclopropane-1-carboxamide, formic acid salt], under setting [1], the EC50 lay in the range of 10 to 100 nM. Turning to `Cc1cc2c(N)nccc2c(C)c1CNc1cc(NCc2ccc(Cc3cc[nH]n3)cc2)ncn1` [Example 358, N^4-(4-((1H-pyrazol-3-yl)methyl)benzyl)-N^6-((1-amino-5,7-dimethylisoquinolin-6-yl)methyl)pyrimidine-4,6-diamine], the EC50 under setting [1] lay in the range of 1 to 10 nM. As to `Cc1cc(CNc2cc(NCc3c(C)cc4c(N)nccc4c3C)ncn2)cc(C)c1CC(=O)N1CC2CC2C1` (centres unmarked) [Example 359, 2-(4-(((6-(((1-amino-5,7-dimethylisoquinolin-6-yl)methyl)amino)pyrimidin-4-yl)amino)methyl)-2,6-dimethylphenyl)-1-(3-azabicyclo[3.1.0]hexan-3-yl)ethan-1-one], for the setting “Primary Dose Response Assay: Average EC50, 500 pM activated kallikrein”, the EC50 was less than 1 nM. Take `Cc1cc2c(N)nccc2c(C)c1CNc1cc(NCc2ccc(Oc3ccccn3)cc2)ncn1` [Example 361, N^4-((1-amino-5,7-dimethylisoquinolin-6-yl)methyl)-N^6-(4-(pyridin-2-yloxy)benzyl)pyrimidine-4,6-diamine]: under setting [1], the EC50 is 1 to 10 nM. The same measure, in the same setting: the value for `Cc1cc2c(N)nccc2c(C)c1CNc1cc(NCc2ccc(Cc3nccs3)cc2)ncn1` [Example 362, N^4-((1-amino-5,7-dimethylisoquinolin-6-yl)methyl)-N^6-(4-(thiazol-2-ylmethyl)benzyl)pyrimidine-4,6-diamine] was less than 1 nM; that for `Cc1cc2c(N)nccc2c(C)c1CNc1cc(NCc2ccc(Cc3ccccn3)cc2)ncn1` [Example 363, N^4-((1-amino-5,7-dimethylisoquinolin-6-yl)methyl)-N^6-(4-(pyridin-2-ylmethyl)benzyl)pyrimidine-4,6-diamine] was less than 1 nM; that for `Cc1ccnc(Cc2ccc(CNc3cc(NCc4c(C)cc5c(N)nccc5c4C)ncn3)cc2)c1` [Example 364, N^4-((1-amino-5,7-dimethylisoquinolin-6-yl)methyl)-N^6-(4-((4-methylpyridin-2-yl)methyl)benzyl)pyrimidine-4,6-diamine] was less than 1 nM.

As for `Cc1cc2c(N)nccc2c(C)c1CNc1cc(NCc2ccc(Cc3ncccc3Cl)cc2)ncn1` [Example 365, N^4-((1-amino-5,7-dimethylisoquinolin-6-yl)methyl)-N^6-(4-((3-chloropyridin-2-yl)methyl)benzyl)pyrimidine-4,6-diamine], the EC50 under setting [1] is 1 to 10 nM.
